Results from ChEMBL document CHEMBL5329201, “Development of 3-acetylindole derivatives that selectively target BRPF1 as new inhibitors of receptor activator of NF-κB ligand (RANKL)-Induced osteoclastogenesis” (Bioorg Med Chem, 2023).
Calls of active or inactive are those of the source. The rule behind the calls is not given here.

Assays:
[1] = Inhibition of His-tagged human recombinant BRPF1B bromodomain using biotinylated H4 (1 to 21)K5/8/12/16Ac peptide as substrate incubated for 0.5 hrs by AlphaScreen assay
[2] = tested on: BMMC; assay: Anti-osteoclastogenesis activity in C57BL/6 mouse BMMC cells assessed as reduction of RANKL/M-CSF-induced c-fos mRNA expression measured after 3 days by qRT-PCR analysis; format: functional, cell-based; settings: dose 2.5-10 µM, time 3.0 day
[3] = tested on: BMMC; assay: Anti-osteoclastogenesis activity in C57BL/6 mouse BMMC cells assessed as reduction of RANKL/M-CSF-induced c-fos expression at 1 to 10 uM measured after 3 days by Western blot analysis; format: functional, cell-based; settings: dose 1-10 µM, time 3.0 day
[4] = Anti-osteoclastogensis activity in C57BL/6 mouse BMMC cells assessed as inhibition of RANKL/M-CSF-induced TRAP activity at 1 uM measured after 3 days by colorimetric assay (reference value: 0%); format: functional; settings: C57BL/6, BMMC, 72 h, time 3 day
[5] = tested on: BMMC; assay: Anti-osteoclastogenesis activity in C57BL/6 mouse BMMC cells assessed as reduction of RANKL/M-CSF-induced osteoclast activation and differentiation measured after 5 days by TRAP staining based light microscopic analysis; format: functional, cell-based; settings: for Activity: time 5.0 day
[6] = tested on: BMMC; assay: Anti-osteoclastogenesis activity in C57BL/6 mouse BMMC cells assessed as reduction of RANKL/M-CSF-induced bone resorption of osteoclasts by measuring decrease in bone resorption pit formation treated for 7 days after seeding cells onto bone slices by toluidine blue staining based confocal laser microscopic analysis; format: functional, cell-based; settings: dose 0.625-10 µM, time 7.0 day
[7] = Cytotoxicity against C57BL/6 mouse BMMC cells assessed as cell viability at 10 uM measured after 48 hrs by CCK-8 assay (reference value: 100%); format: toxicity, cell-based; settings: read-out: Activity
[8] = tested on: BMMC; assay: Anti-osteoclastogenesis activity in C57BL/6 mouse BMMC cells assessed as reduction of RANKL/M-CSF-induced NFATc1 mRNA expression at 1 uM measured after 3 days by qRT-PCR analysis; format: functional, cell-based; settings: time 3.0 day
[9] = tested on: BMMC; assay: Anti-osteoclastogenesis activity in C57BL/6 mouse BMMC cells assessed as reduction of RANKL/M-CSF-induced osteoclast activation and differentiation by measuring decrease in F-actin ring formation measured after 5 days by F-actin staining based microscopic analysis; format: functional, cell-based; settings: time 5.0 day
[10] = tested on: BMMC; assay: Anti-osteoclastogenesis activity in C57BL/6 mouse BMMC cells assessed as reduction of RANKL/M-CSF-induced TRAP mRNA expression at 1 uM measured after 3 days by qRT-PCR analysis; format: functional, cell-based; settings: time 3.0 day
[11] = tested on: BMMC; assay: Anti-osteoclastogenesis activity in C57BL/6 mouse BMMC cells assessed as reduction of RANKL/M-CSF-induced bone resorption of osteoclasts by measuring decrease in pit areas treated for 7 days after seeding cells onto bone slices by toluidine blue staining based confocal laser microscopic analysis; format: functional, cell-based; settings: dose 0.625-10 µM, time 7.0 day
[12] = tested on: BMMC; assay: Anti-osteoclastogenesis activity in C57BL/6 mouse BMMC cells assessed as reduction of RANKL/M-CSF-induced CTSK mRNA expression at 1 uM measured after 3 days by qRT-PCR analysis; format: functional, cell-based; settings: time 3.0 day
[13] = tested on: BMMC; assay: Anti-osteoclastogenesis activity in C57BL/6 mouse BMMC cells assessed as reduction of RANKL/M-CSF-induced osteoclast activation and differentiation by measuring F-actin ring formation with fewer and smaller nuclei measured after 5 days by F-actin staining based microscopic analysis; format: functional, cell-based; settings: time 5.0 day
[14] = species on record: Homo sapiens; assay: Inhibition of His-tagged human recombinant BRPF1B bromodomain using biotinylated H4 (1 to 21)K5/8/12/16Ac peptide as substrate at 20 uM incubated for 0.5 hrs by AlphaScreen assay relative to control
[15] = species on record: Homo sapiens; assay: Inhibition of His-tagged human recombinant BRPF1B bromodomain using biotinylated H4 (1 to 21)K5/8/12/16Ac peptide as substrate at 2 uM incubated for 0.5 hrs by AlphaScreen assay relative to control
[16] = species on record: Homo sapiens; assay: Binding affinity to BRPF1B (unknown origin) assessed as change in melting temperature at 10 uM by Differential scanning fluorimetry

Structure (SMILES)	IC50 [1] [µM]	inhibition [14] [%]	inhibition at 1 µM [4] [%]	viability at 48 h, 10 µM [7] [%]	also measured
CCCC(=O)Nc1cc(C(=O)OC)cc2c(C(C)=O)c(C)[nH]c12		100			inhibition [15]: 38.5%
COc1ccccc1C(=O)Nc1cc2c(cc1N1CCCC1)n(C)c(=O)n2C		100			inhibition [15]: 101%
COC(=O)c1cc(NC(=O)Nc2cccc(C(F)(F)F)c2)c2[nH]c(C)c(C(C)=O)c2c1		82.3			
CCOC(=O)Nc1cc(C(=O)OC)cc2c(C(C)=O)c(C)[nH]c12	0.558	100			ΔTm [16]: 5.39 °C; inhibition [15]: 93.1%
COC(=O)c1cc(NC(=O)c2ccccc2OC)c2[nH]c(C)c(C(C)=O)c2c1		28.3			
CCOC(=O)Nc1cc(C(=O)NC2CCCC2)cc2c(C(C)=O)c(C)[nH]c12	1.83				
COC(=O)c1cc(NC(=O)c2ccc(Cl)cc2)c2[nH]c(C)c(C(C)=O)c2c1					ΔTm [16]: 1.92 °C
COC(=O)c1cc(NC(=O)Nc2ccccc2OC)c2[nH]c(C)c(C(C)=O)c2c1		91.9			
CCOC(=O)Nc1cc(C(=O)NC)cc2c(C(C)=O)c(C)[nH]c12	0.908		36.8	92.6	
COC(=O)c1cc(NC(=O)Nc2ccccc2)c2[nH]c(C)c(C(C)=O)c2c1		100			inhibition [15]: 17.6%
CCNC(=O)Nc1cc(C(=O)OC)cc2c(C(C)=O)c(C)[nH]c12		100			inhibition [15]: 42.2%
CCOC(=O)Nc1cc(C(=O)OC)cc2c(C(C)=O)c(C)n(C)c12		99.8			inhibition [15]: 17.6%
CCOC(=O)Nc1cc(C(=O)Nc2nccs2)cc2c(C(C)=O)c(C)[nH]c12	0.309		0	104	
CCOC(=O)Nc1cc(C(=O)c2ccccc2)cc2c(C(C)=O)c(C)[nH]c12	0.743		66.8	119	
CCOC(=O)Nc1cc(C(=O)OC)cc2c(C(C)=O)c[nH]c12		13.1			
CC(=O)c1c(C)[nH]c2c(NC3CCNCC3)cc(-c3cccnc3)cc12	0.442		57.1	94.9	
COC(=O)c1cc(NS(=O)(=O)c2ccccc2OC)c2[nH]c(C)c(C(C)=O)c2c1		100			inhibition [15]: 60%
COC(=O)c1cc(NS(=O)(=O)c2ccccc2)c2[nH]c(C)c(C(C)=O)c2c1		100			inhibition [15]: 18.3%
CCOC(=O)CNc1cc(C(=O)OC)cc2c(C(C)=O)c(C)[nH]c12					ΔTm [16]: 5.18 °C
CCOC(=O)Nc1cc(C(=O)Nc2ccccc2)cc2c(C(C)=O)c(C)[nH]c12	1.7				

Further lines, with some results ahead:

IC50 [1] [µM]	inhibition [14] [%]	Structure (SMILES)	inhibition at 1 µM [4] [%]	viability at 48 h, 10 µM [7] [%]	also measured
0.102		CCOC(=O)Nc1cc(-c2cccnc2)cc2c(C(C)=O)c(C)[nH]c12	73.8	113	Activity [2]: Dose-Dependent Effect; Activity [3]: Active; IC50 ([5]; C57BL/6, BMMC, 120 h): 0.19 µM; Activity [5]: Dose-Dependent Effect; Activity [6]: Dose-Dependent Effect; Activity [8]: Active; Activity [9]: Active; Activity [10]: Active; Activity [11]: Dose-Dependent Effect; Activity [12]: Active; Activity [13]: Active
0.294		CCOC(=O)Nc1cc(-c2nccs2)cc2c(C(C)=O)c(C)[nH]c12	41.3	111	
0.109		CCOC(=O)Nc1cc(-c2ccccn2)cc2c(C(C)=O)c(C)[nH]c12	38.8	110	
0.109		CCOC(=O)Nc1cc(-c2ccncc2)cc2c(C(C)=O)c(C)[nH]c12	66.5	107	
1.12		CC(=O)c1c(C)[nH]c2c(N)cc(-c3cccnc3)cc12	0	109	
0.173		CC(=O)c1c(C)[nH]c2c(N(C)C)cc(-c3cccnc3)cc12	26.2	104	
0.07		CC(=O)c1c(C)[nH]c2c(N(C)C)cc(-c3ccncc3)cc12	67.1	110	
1.44		CCNC(=O)Nc1cc(-c2cccnc2)cc2c(C(C)=O)c(C)[nH]c12			
	100	COC(=O)c1cc(NC(=O)c2ccccc2)c2[nH]c(C)c(C(C)=O)c2c1			inhibition [15]: 11.5%
0.54		CC(=O)c1c(C)[nH]c2c(N(C)C)cc(-c3ccccn3)cc12	100	28.9	
3.43		CC(=O)c1c(C)[nH]c2c(NC3CNC3)cc(-c3cccnc3)cc12			
0.206		CCOC(=O)Nc1cc(-c2ccccc2)cc2c(C(C)=O)c(C)[nH]c12	0	110	
0.233		CC(=O)c1c(C)[nH]c2c(N3CCCC3)cc(-c3cccnc3)cc12	40	101	
> 10		CCOC(=O)Nc1cc(-c2ccccn2)cc2cc(C)[nH]c12			
0.09		CC(=O)c1c(C)[nH]c2c(N(C)C)cc(-c3nccs3)cc12	44.1	92.6	
1.09		COc1ccccc1S(=O)(=O)Nc1cc(-c2cccnc2)cc2c(C(C)=O)c(C)[nH]c12	74.2	92.7	Activity [5]: Dose-Dependent Effect
